According to the NIST ThermoML archive (doi:10.1016/j.fluid.2014.09.014):

Assay: refractive index (other wavelength) (dimensionless); xn = mol fraction of the nth substance listed
Conditions: 298.15 K, 101 kPa, Liquid, Standard Abbe refractometry

CC(C)OC(C)C [diisopropyl ether] + CO
refractive index
Conditions	Wavelength=587.6 nm	Wavelength=589.3 nm	Wavelength=632.8 nm	Wavelength=644 nm
x2 = 0	–	1.3653	1.36402	1.36373
x2 = 0.0423	–	1.36528	1.364	1.3637
x2 = 0.0424	–	1.36525	1.36397	1.36367
x2 = 0.082	–	1.36523	1.36395	1.36365
x2 = 0.0822	–	1.36524	1.36396	1.36367
x2 = 0.1171	–	1.36508	1.36381	1.36352
x2 = 0.1271	–	1.3651	1.36381	1.36352
x2 = 0.1827	–	1.36473	1.36346	1.36317
x2 = 0.2162	–	1.36528	1.364	1.3637
x2 = 0.251	–	1.36465	1.36338	1.36308
x2 = 0.3298	–	1.36386	1.3626	1.36231
x2 = 0.3577	–	1.36246	1.36121	1.36091
x2 = 0.4497	–	1.36158	1.36034	1.36004
x2 = 0.4525	1.36217	1.36212	1.36087	1.36057
x2 = 0.522	1.35991	1.35986	1.35863	1.35833
x2 = 0.5543	1.35952	1.35947	1.35812	1.35777
x2 = 0.609	1.35663	1.35658	1.35536	1.35507
x2 = 0.6529	1.35515	1.3551	1.35389	1.3536
x2 = 0.7504	1.3513	1.35125	1.35005	1.34978
x2 = 0.804	1.3471	1.34706	1.3459	1.34562
x2 = 0.807	1.34699	1.34694	1.34578	1.3455
x2 = 0.8727	1.34182	1.34177	1.34062	1.34036
x2 = 0.9233	1.33495	1.3349	1.33379	–
x2 = 0.9253	1.33679	1.33674	1.33564	–
x2 = 0.9527	1.33364	1.33359	1.33248	–
x2 = 0.9773	1.33017	1.33012	1.32903	–
x2 = 0.989	1.329	1.32895	1.32786	–
x2 = 0.9964	1.32759	1.32754	1.32645	–
